Laboratory results as given in patent US7838556B2 (priority 2006, dated 2010).
Counter-ions that a name gives are not always drawn. Like-named read-outs stand apart in the source and are kept apart here.

How the values were obtained:
Melatonin, Non-selective = assay type: binding
[1] = molecular target: T1, GHB receptors (GHB sites) (Rattus norvegicus, UniProt P11275); conditions: cited from earlier work
GABAA receptors [2] = conditions: cited from earlier work
Sodium, Site 2 = assay type: binding
[3] = molecular target: Adrenergic, Beta, Non-selective; assay type: binding
[4] = molecular target: Muscarinic, Non-selective, Central; assay type: binding
[5] = molecular target: Muscarinic, Non-selective, Peripheral; assay type: binding
GABAB receptors [6] = molecular target: T2, GABAB receptors (Rattus norvegicus, UniProt Q9Z0U4); conditions: cited from earlier work
T2 sequence (O88871 41-940): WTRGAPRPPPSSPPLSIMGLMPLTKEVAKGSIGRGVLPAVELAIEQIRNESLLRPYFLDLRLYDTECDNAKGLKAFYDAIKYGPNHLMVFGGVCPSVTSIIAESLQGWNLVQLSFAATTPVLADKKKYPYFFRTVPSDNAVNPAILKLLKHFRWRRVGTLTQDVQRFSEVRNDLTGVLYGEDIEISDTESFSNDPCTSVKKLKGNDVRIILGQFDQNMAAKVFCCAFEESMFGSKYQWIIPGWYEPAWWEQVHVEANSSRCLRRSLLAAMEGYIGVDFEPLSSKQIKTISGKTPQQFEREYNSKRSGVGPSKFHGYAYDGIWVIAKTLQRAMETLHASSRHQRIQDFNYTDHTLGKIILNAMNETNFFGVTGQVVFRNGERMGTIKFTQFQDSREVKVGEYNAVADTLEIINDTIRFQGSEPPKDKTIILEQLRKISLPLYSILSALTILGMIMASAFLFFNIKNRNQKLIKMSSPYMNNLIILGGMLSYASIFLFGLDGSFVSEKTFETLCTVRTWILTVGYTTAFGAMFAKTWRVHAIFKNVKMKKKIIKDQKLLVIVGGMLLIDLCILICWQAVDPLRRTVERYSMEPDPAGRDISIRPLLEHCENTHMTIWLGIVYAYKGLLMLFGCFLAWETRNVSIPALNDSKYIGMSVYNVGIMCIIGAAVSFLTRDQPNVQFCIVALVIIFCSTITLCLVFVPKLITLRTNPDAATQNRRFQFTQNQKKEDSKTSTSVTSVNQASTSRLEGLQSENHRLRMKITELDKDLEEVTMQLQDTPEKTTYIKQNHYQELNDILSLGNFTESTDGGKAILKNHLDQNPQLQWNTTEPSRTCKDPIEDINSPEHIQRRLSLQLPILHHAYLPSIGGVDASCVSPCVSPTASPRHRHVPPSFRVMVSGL
T2 sequence (Q9Z0U4 17-960): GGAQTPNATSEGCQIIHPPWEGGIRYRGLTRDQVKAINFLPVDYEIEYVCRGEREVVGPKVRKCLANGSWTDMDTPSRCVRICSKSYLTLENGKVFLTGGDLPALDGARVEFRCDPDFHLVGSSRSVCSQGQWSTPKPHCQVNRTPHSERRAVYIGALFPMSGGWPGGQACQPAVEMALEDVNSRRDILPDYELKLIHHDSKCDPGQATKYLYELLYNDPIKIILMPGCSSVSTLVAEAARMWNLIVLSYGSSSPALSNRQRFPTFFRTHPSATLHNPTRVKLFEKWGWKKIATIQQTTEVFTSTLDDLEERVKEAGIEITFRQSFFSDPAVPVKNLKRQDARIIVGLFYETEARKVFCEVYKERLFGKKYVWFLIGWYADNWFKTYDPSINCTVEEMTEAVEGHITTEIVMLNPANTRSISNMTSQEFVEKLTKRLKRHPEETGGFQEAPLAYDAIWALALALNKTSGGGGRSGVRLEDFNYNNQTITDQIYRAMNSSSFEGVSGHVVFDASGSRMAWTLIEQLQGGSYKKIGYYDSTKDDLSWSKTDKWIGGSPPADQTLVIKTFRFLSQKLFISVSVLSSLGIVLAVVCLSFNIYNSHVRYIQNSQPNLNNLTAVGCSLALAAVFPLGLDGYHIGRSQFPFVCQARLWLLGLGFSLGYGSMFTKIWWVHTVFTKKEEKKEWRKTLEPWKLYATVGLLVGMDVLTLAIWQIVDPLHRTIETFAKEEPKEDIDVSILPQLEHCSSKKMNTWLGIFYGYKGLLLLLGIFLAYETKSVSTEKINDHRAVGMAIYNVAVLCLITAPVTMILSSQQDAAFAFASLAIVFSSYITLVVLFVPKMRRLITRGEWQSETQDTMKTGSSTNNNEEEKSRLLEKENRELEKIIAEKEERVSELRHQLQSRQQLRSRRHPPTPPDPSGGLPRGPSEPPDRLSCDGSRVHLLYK

GABA receptors [7] = conditions: cited from earlier work
GABAA receptors [8] = assay type: binding, rat
GABAB receptors [9] = molecular target: T2, GABAB receptors; assay type: binding
GABA receptors [10] = assay type: binding, rat
Adenosine, Non-selective = assay type: binding
[11] = system: Adrenergic, Alpha 1, Non-selective; assay type: binding
[12] = system: Adrenergic, Alpha 2, Non-selective; assay type: binding
Dopamine, Non-selective = assay type: binding
GABA, Non-Selective = assay type: binding
Opiod, Non-selective = assay type: binding
Serotonin, Non-selective = assay type: binding
Sigma, Non-selective = assay type: binding
[13] = system: Calcium Channel, Type L (Benzothiazepine Site); assay type: binding
[14] = system: Calcium Channel, Type L (Dihydropyridine Site); assay type: binding
Calcium Channel, Type N = Calcium Channel, Type N (Homo sapiens, UniProt Q00975); assay type: binding
Sequence of Calcium Channel, Type N (Q00975 whole entry, looked up): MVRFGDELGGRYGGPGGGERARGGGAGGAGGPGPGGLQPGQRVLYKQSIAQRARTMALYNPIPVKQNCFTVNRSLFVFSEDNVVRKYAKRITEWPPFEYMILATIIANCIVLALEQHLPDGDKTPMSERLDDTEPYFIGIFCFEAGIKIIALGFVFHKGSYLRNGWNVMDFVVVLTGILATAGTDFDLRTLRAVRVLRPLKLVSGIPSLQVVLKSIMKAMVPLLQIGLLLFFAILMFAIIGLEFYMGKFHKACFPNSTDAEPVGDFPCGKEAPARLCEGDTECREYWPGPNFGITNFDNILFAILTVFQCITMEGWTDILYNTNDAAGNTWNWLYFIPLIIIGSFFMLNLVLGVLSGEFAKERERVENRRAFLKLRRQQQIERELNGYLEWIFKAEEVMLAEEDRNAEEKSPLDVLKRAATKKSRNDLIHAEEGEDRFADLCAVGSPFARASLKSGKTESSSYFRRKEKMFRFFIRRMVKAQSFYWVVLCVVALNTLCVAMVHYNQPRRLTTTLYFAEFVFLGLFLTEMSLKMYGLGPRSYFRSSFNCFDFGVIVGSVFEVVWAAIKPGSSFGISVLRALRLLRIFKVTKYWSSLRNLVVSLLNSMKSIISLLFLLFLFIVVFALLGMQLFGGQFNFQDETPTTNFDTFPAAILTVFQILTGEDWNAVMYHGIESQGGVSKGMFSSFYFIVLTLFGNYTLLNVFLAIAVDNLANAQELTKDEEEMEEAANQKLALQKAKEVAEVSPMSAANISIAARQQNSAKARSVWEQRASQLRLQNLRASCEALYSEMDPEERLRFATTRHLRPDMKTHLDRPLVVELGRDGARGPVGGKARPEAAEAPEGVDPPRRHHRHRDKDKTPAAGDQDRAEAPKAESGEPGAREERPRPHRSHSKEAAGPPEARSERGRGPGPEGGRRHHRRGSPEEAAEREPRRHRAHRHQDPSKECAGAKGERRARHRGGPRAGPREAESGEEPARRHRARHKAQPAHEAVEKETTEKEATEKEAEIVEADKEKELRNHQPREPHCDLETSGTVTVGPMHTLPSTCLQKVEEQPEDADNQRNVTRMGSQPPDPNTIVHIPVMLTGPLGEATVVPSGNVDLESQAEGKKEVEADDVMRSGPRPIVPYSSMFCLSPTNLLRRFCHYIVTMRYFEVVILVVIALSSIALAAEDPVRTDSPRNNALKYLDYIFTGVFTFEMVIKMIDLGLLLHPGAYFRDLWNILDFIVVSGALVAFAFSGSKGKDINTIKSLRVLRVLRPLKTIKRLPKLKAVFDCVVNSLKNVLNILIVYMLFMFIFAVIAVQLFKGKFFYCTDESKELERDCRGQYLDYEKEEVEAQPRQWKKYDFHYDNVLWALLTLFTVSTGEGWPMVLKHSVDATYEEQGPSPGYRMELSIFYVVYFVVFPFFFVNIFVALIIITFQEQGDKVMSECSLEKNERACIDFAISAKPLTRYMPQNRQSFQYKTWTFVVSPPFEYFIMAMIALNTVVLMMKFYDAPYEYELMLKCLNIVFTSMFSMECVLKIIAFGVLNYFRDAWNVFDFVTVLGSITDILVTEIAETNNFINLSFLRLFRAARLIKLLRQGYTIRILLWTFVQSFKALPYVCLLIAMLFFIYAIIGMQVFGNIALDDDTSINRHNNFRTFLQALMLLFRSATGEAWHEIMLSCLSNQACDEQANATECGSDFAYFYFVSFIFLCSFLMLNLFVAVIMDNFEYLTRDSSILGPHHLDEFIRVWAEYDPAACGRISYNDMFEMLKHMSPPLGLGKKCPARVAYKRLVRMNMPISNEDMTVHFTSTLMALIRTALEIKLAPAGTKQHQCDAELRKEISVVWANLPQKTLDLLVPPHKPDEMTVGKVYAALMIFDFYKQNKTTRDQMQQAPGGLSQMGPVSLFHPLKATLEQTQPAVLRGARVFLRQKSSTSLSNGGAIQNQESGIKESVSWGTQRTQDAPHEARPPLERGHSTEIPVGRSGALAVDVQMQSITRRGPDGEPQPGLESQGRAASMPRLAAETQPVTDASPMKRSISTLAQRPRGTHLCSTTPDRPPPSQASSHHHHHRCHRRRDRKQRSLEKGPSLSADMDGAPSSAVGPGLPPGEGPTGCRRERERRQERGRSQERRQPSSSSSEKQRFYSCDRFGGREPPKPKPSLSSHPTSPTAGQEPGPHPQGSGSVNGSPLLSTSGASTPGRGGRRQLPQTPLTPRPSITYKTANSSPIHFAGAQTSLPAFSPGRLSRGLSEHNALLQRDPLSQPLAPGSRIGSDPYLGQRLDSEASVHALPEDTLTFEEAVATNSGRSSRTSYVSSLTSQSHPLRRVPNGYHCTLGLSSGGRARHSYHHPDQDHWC

[15] = system: GABA, Chloride, TBOB Site; assay type: binding
[16] = molecular target: Potassium Channel, ATP-Sensitive (Rattus norvegicus, UniProt Q09429); assay type: binding
[17] = molecular target: Potassium Channel, I[Kr] (hERG) (hr) (Homo sapiens, UniProt Q12809)
[18] = molecular target: T1, GHB receptors (GHB sites); assay type: binding
[19] = molecular target: Calcium Channel, Type L (Dihydropyridine Site); conditions: cited from earlier work

T1 sequence (P11275 whole entry): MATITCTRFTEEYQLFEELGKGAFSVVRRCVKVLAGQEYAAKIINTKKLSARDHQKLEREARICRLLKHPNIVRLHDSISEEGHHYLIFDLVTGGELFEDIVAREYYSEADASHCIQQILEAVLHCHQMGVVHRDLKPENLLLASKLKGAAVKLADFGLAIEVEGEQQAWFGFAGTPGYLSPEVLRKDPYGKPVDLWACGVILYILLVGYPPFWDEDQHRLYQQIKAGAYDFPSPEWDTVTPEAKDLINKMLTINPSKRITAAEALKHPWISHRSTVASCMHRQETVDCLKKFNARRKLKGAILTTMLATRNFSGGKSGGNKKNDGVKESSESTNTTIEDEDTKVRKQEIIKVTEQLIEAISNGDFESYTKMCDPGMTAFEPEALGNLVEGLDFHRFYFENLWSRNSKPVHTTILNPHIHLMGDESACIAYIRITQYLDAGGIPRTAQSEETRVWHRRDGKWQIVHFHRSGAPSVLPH

O=C(O)Cc1cccc(O)c1 [3-hydroxyphenylacetic acid]
affinity at GHB receptors compared with GHB [1]: greater affinity than GHB | Percent displacement of [3H]GABA at 1 Mm, GABAA (GABAA receptors [2]): 44%

CCN1C[C@]2(COC)[C@H](O)C[C@H](OC)[C@@]34[C@@H]5C[C@@]6(O)[C@H](OC(=O)c7ccccc7)[C@@H]5[C@@](OC(C)=O)([C@@H]([C@H](OC)[C@H]23)[C@@H]14)[C@@H](O)[C@@H]6OC [Aconitine, reference compound]
Ki (Sodium, Site 2; read-out: Ki (M) Ref. Cpd.): 6.67e-07 M

C=CCc1ccccc1OCC(O)CNC(C)C (stereo not drawn) [Alprenolol HCl, reference compound]
Ki ([3]; read-out: Ki (M) Ref. Cpd.): 3.33e-09 M

CN1[C@@H]2CC[C@H]1C[C@@H](OC(=O)C(CO)c1ccccc1)C2 (stereo partly drawn) [Atropine sulfate, reference compound]
Ki ([4]; read-out: Ki (M) Ref. Cpd.): 1.26e-10 M | Ki ([5]; read-out: Ki (M) Ref. Cpd.): 5.8e-10 M

O=C(O)CCCO [Compound 1, Gamma-hydroxybutyric acid]
Percent displacement of [3H]GABA at 1 Mm, GABAA (GABAA receptors [2]): 35.5 ± 3.7% | Percent displacement of [3H]GABA at 1 Mm, GABAB (GABAB receptors [6]): 41.1 ± 3.1% | affinity for GABA receptors (GABA receptors [7]): weak affinity

O=C(O)Cc1cccc(O)c1 [Compound 7, 3-hydroxyphenylacetic acid]
Percent displacement of [3H]GABA at 1 Mm, GABAA (GABAA receptors [2]): 44.2 ± 2.0% | Percent displacement of [3H]GABA at 1 Mm, GABAB (GABAB receptors [6]): 14.0 ± 4.0% | affinity for GABA receptors (GABA receptors [7]): weak affinity

O=C(O)CCCOc1ccccc1 [Compound 8, reference compound]
Percent displacement of [3H]GABA at 1 Mm, GABAA (GABAA receptors [8]): 6.3 ± 1.7% | Percent displacement of [3H]GABA at 1 Mm, GABAB (GABAB receptors [9]): 6.5 ± 1.0%

O=C(O)Cc1cccc(OCCc2ccccc2)c1 [Compound 10, phenethyl ether of 3-hydroxyphenylacetic acid]
Percent displacement of [3H]GABA at 1 Mm, GABAA (GABAA receptors [8]): 15.1 ± 7.5% | Percent displacement of [3H]GABA at 1 Mm, GABAB (GABAB receptors [9]): −1.2 ± 7.3% | affinity at GABA receptors / displacement of [3H]GABA compared with 3-hydroxyphenylacetic acid (GABA receptors [10]): decreased affinity | Activity (Adenosine, Non-selective): No (key: No: Activity = greater than or equal to 50% Inhibition of binding) | Percent Inhibition (Average; N = 2) (Adenosine, Non-selective): −3.45% | Activity [11]: No (key: No: Activity = greater than or equal to 50% Inhibition of binding) | Percent Inhibition (Average; N = 2) [11]: −10.77% | Activity [12]: No (key: No: Activity = greater than or equal to 50% Inhibition of binding) | Percent Inhibition (Average; N = 2) [12]: 0.21% | Activity [3]: No (key: No: Activity = greater than or equal to 50% Inhibition of binding) | Percent Inhibition (Average; N = 2) [3]: 43.67% | Activity (Dopamine, Non-selective): No (key: No: Activity = greater than or equal to 50% Inhibition of binding) | Percent Inhibition (Average; N = 2) (Dopamine, Non-selective): 14.51% | Activity (GABA, Non-Selective): No (key: No: Activity = greater than or equal to 50% Inhibition of binding) | Percent Inhibition (Average; N = 2) (GABA, Non-Selective): 10.28% | Activity (Melatonin, Non-selective): No (key: No: Activity = greater than or equal to 50% Inhibition of binding) | Percent Inhibition (Average; N = 2) (Melatonin, Non-selective): 12.69% | Activity [4]: No (key: No: Activity = greater than or equal to 50% Inhibition of binding) | Percent Inhibition (Average; N = 2) [4]: 6.98% | Activity [5]: No (key: No: Activity = greater than or equal to 50% Inhibition of binding) | Percent Inhibition (Average; N = 2) [5]: −0.77% | Activity (Opiod, Non-selective): No (key: No: Activity = greater than or equal to 50% Inhibition of binding) | Percent Inhibition (Average; N = 2) (Opiod, Non-selective): 0.09% | Activity (Serotonin, Non-selective): No (key: No: Activity = greater than or equal to 50% Inhibition of binding) | Percent Inhibition (Average; N = 2) (Serotonin, Non-selective): −1.83% | Activity (Sigma, Non-selective): No (key: No: Activity = greater than or equal to 50% Inhibition of binding) | Percent Inhibition (Average; N = 2) (Sigma, Non-selective): 4.30% | Activity [13]: No (key: No: Activity = greater than or equal to 50% Inhibition of binding) | Percent Inhibition (Average; N = 2) [13]: 9.41% | Activity [14]: No (key: No: Activity = greater than or equal to 50% Inhibition of binding) | Percent Inhibition (Average; N = 2) [14]: 14.52% | Activity (Calcium Channel, Type N): No (key: No: Activity = greater than or equal to 50% Inhibition of binding) | Percent Inhibition (Average; N = 2) (Calcium Channel, Type N): −2.31% | Activity [15]: No (key: No: Activity = greater than or equal to 50% Inhibition of binding) | Percent Inhibition (Average; N = 2) [15]: −15.01% | Activity [16]: No (key: No: Activity = greater than or equal to 50% Inhibition of binding) | Activity (Sodium, Site 2): No (key: No: Activity = greater than or equal to 50% Inhibition of binding) | Percent Inhibition (Average; N = 2) (Sodium, Site 2): 10.18% | Activity [17]: No (key: No: Activity = greater than or equal to 50% Inhibition of binding) | Percent Inhibition (Average; N = 2) ([17]; human): −11.94%

O=C(O)Cc1cccc(OCc2ccccc2)c1 [Compound 11, benzyl ether of 3-hydroxyphenylacetic acid]
fold lower affinity for GHB receptors than 3-hydroxyphenylacetic acid [18]: 4 fold | Percent displacement of [3H]GABA at 1 Mm, GABAA (GABAA receptors [8]): 11.0 ± 6.2% | Percent displacement of [3H]GABA at 1 Mm, GABAB (GABAB receptors [9]): −4.7 ± 4.7% | affinity at GABA receptors / displacement of [3H]GABA compared with 3-hydroxyphenylacetic acid (GABA receptors [10]): lower extent

O=C(O)Cc1cccc(Oc2ccccc2)c1 [Compound 12, phenyl ether of 3-hydroxyphenylacetic acid]
Percent displacement of [3H]GABA at 1 Mm, GABAA (GABAA receptors [8]): 2.7 ± 0.5% | Percent displacement of [3H]GABA at 1 Mm, GABAB (GABAB receptors [9]): −5.5 ± 1.2% | affinity at GABA receptors / displacement of [3H]GABA compared with 3-hydroxyphenylacetic acid (GABA receptors [10]): decreased affinity

CCOC(=O)C1=C(C)NC(C)=C(C(=O)OC)C1c1cccc([N+](=O)[O-])c1 (stereo not drawn) [[3H]Nitrendipine]
Kd [19]: 0.2 nM
